# Reference: patent US9546153B2, “Bicyclic heterocycle substituted pyridyl compounds useful as kinase modulators” (BRISTOL-MYERS SQUIBB COMPANY, priority 2012, dated 2017)
# Where two headings read alike, the source gives them in different places.
# Tests used:
# IRAK4 = IRAK4 (Homo sapiens (Human), UniProt Q9NWZ3); assay: IRAK4 Inhibition Assay; format: biochemical; conditions: ATP 500 μM; IRAK4 0.6 nM; 60 min at room temperature
# Protocol: The assays were performed in U-bottom 384-well plates. […] The reaction was initiated by the combination of IRAK4 with substrates and test compounds. The reaction was incubated at room temperature for 60 min. and terminated by adding 45 μL of 35 mM EDTA to each sample. The reaction mixture was analyzed on the Caliper LABCHIP® 3000 (Caliper, Hopkinton, Mass.) by electrophoretic separation of the fluorescent substrate and phosphorylated product.
# [1] = tested on: TLR2 induced IL-6 in peripheral blood mononuclear cells (PBMCs); assay: PBMC TLR2 Induced IL-6 Assay; format: cell-based, human; conditions: human PBMCs, 10 μg/ml lipoteichoic acid for 5 hours, IL-6 by ELISA, value without asterisk, read-out: Cell IC50
# In short: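 Human PBMCs (250000 cells/well) in RPMI with 10% heat-inactivated FCS pre-treated with compound for 30 min at 37° C, then stimulated 5 h with 10 μg/ml lipoteichoic acid. Supernatant IL-6 measured by ELISA and reported as IC50 or EC50.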
# IRAK4, sequence (Q9NWZ3 whole entry, species assumed): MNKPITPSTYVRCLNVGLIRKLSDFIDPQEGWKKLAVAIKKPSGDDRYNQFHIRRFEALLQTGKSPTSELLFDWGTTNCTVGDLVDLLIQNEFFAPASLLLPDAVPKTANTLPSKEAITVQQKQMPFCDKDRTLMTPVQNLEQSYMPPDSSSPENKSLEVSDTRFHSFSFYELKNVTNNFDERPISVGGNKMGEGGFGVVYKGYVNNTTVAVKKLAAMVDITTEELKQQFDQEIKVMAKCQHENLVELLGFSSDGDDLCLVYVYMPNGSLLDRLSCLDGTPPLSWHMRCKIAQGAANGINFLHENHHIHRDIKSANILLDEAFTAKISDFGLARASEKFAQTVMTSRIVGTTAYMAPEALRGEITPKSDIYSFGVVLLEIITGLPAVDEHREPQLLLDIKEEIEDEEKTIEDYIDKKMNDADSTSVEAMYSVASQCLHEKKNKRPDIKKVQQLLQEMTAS
Compound,IC50 (IRAK4) [µM],"IC50 ([1]; Homo sapiens, PBMC, 5 h) [µM]",IC50 [1] [µM]
CC(C)(O)[C@H](F)CNC(=O)c1cnc(Nc2ccc3ncsc3c2)cc1Nc1cccc(CO)c1 [Example 57],0.0052,0.314,–
CC(C)(O)CCNC(=O)c1cnc(Nc2ccc3ncsc3c2)cc1NC1CC1 [Example 9],0.01,0.289,–
CC(C)(O)[C@H](F)CNC(=O)c1cnc(Nc2ccc3ncsc3c2)cc1Nc1ccc(OC(F)F)cc1 [Example 51],0.0037,0.334,–
CCCNc1cc(Nc2ccc3ncsc3c2)ncc1C(=O)NC[C@@H](F)C(C)(C)O [Example 159],0.0032,0.146,–
CC(C)Nc1cc(Nc2ccc3ncsc3c2)ncc1C(=O)NC1CCCC(CO)C1 (centres unmarked) [Example 173],0.0093,–,0.696
CC(C)Nc1cc(Nc2cnc3[nH]ccc3c2)ncc1C(=O)NC[C@@H](F)C(C)(C)O [Example 415],0.0063,0.502,–
CC(C)(O)[C@H](F)CNC(=O)c1cnc(Nc2ccc3nccnc3n2)cc1NC1CC1 [Example 97],0.0164,0.302,–
CC(CO)Nc1cc(Nc2nc3ccnn3cc2F)ncc1C(=O)NC[C@@H](F)C(C)(C)O (some centres unmarked) [Example 423],0.0065,0.461,–
CC(C)(O)[C@H](F)CNC(=O)c1cnc(Nc2ccc3ncsc3n2)cc1NC1CC1 [Example 308],0.0005,0.144,–
CC(C)(O)[C@H](F)CNC(=O)c1cnc(Nc2ccc3nccnc3c2)cc1NC1CCCC1(F)F (some centres unmarked) [Example 359],0.0046,0.188,–
CC(C)(O)[C@H](F)CNC(=O)c1cnc(Nc2ccc3nonc3c2)cc1N[C@@H]1CCCC1F (some centres unmarked) [Example 356],0.003,0.281,–
CC(C)(O)[C@H](F)CNC(=O)c1cnc(Nc2ccc3ncsc3c2)cc1N[C@H]1CC[C@H](N)CC1 [Example 61],0.007,0.257,–
CC(C)(O)[C@H](F)CNC(=O)c1cnc(Nc2ccc3ncccc3n2)cc1NC1CCCC1F (some centres unmarked) [Example 404],0.0078,1.01,–
CC(C)(O)[C@H](F)CNC(=O)c1cnc(Nc2ccc3ncsc3c2)cc1N[C@@H]1CCCC1F (some centres unmarked) [Example 344],0.0018,–,0.038
CC(C)(O)[C@H](F)CNC(=O)c1cnc(Nc2ccn3nccc3c2)cc1NC1CC(F)C1 (some centres unmarked) [Example 296],0.0071,0.384,–
CC(C)Nc1cc(Nc2ccc3ncsc3c2)ncc1C(=O)NCC[C@@H](C)NC(=O)[C@@H]1CC[C@@H](F)C1 [Example 187],0.0027,0.324,–
CC(C)Nc1cc(Nc2ccc3ncsc3c2)ncc1C(=O)NC1CCN(C(=O)c2cccnc2)CC1 [Example 219],0.0048,0.447,–
CC(C)(O)[C@H](F)CNC(=O)c1cnc(Nc2cnc3[nH]ccc3c2)cc1NC1CC1 [Example 434],0.0065,0.052,–
CC(C)(F)CNc1cc(Nc2ccn3ncc(F)c3c2)ncc1C(=O)NC[C@@H](F)C(C)(C)O [Example 301],0.0031,0.19,–
CC(C)(O)[C@H](F)CNC(=O)c1cnc(Nc2ccc3ncsc3c2)cc1NC1CC1 [Example 42],0.0027,0.228,–
CCNc1cc(Nc2ccc3ncsc3n2)ncc1C(=O)NC[C@@H](F)C(C)(C)O [Example 311],0.0024,0.081,–
CC(=O)NC12CCC(Nc3cc(Nc4ccc5ncsc5c4)ncc3C(=O)NC[C@@H](F)C(C)(C)O)(CC1)C2 [Example 139],0.0031,0.31,–
CC(C)Nc1cc(Nc2nc3ccnn3cc2F)ncc1C(=O)NC1CCC(C(C)(C)O)CC1 (centres unmarked) [Example 457],0.0034,1.55,–

Compound,IC50 (IRAK4) [µM],"IC50 ([1]; Homo sapiens, PBMC, 5 h) [µM]",IC50 [1] [µM]
CC(C)(O)[C@H](F)CNC(=O)c1cnc(Nc2ccc3ncsc3c2)cc1N[C@@H]1CCCC1F (some centres unmarked) [Example 343],0.003,–,0.114
CC(C)(O)[C@H](F)CNC(=O)c1cnc(Nc2ccn3nccc3n2)cc1NC1CC(F)C1 (some centres unmarked) [Example 263],0.0042,0.19,–
CC(Nc1cc(Nc2ccc3ncsc3c2)ncc1C(=O)NC[C@@H](F)C(C)(C)O)C1CC1 (some centres unmarked) [Example 106],0.058,0.57,–
"CNC(=O)c1cnc(Nc2ccc3ncsc3c2)cc1NC1C2CC3CC1CC(O)(C3)C2 (single isomer, unassigned) [Example 148]",0.0245,–,0.456
CC(C)Nc1cc(Nc2ccc3ncsc3c2)ncc1C(=O)NCC[C@@H](C)NC(=O)OC(C)C [Example 183],0.0039,0.436,–
CC(C)Nc1cc(Nc2ccc3ncsc3c2)ncc1C(=O)NC[C@@H](F)C(C)(C)O [Example 35],0.0026,0.482,–
CC(C)Nc1cc(Nc2nc3scnc3cc2F)ncc1C(=O)NC[C@@H](F)C(C)(C)O [Example 455],0.0008,0.573,–
CC1CCCC1Nc1cc(Nc2ccc3ncsc3c2)ncc1C(=O)NC[C@@H](F)C(C)(C)O (some centres unmarked) [Example 105],0.0019,–,0.321
CC(C)Nc1cc(Nc2ccc3ncsc3c2)ncc1C(=O)NCCC(C)(C)O [Example 8],0.0041,0.29,–
CC(C)Nc1cc(Nc2ccc3ncsc3c2)ncc1C(=O)NCC[C@@H](C)NC(=O)OC(C)(C)C [Example 175],0.0051,0.402,–
CC(C)(O)[C@H](F)CNC(=O)c1cnc(Nc2ccc3ncsc3c2)cc1NC12CCC(N)(CC1)C2 [Example 140],0.0023,0.219,–
CC(C)Nc1cc(Nc2ccc3ncoc3c2)ncc1C(=O)NC[C@@H](F)C(C)(C)O [Example 130],0.0026,0.231,–
CC(C)(O)[C@H](F)CNC(=O)c1cnc(Nc2nc3scnc3cc2F)cc1NC1CCOCC1F (some centres unmarked) [Example 470],0.0036,–,0.635
CC(C)(O)C1CC(Nc2cc(Nc3ccc4ncsc4c3)ncc2C(=O)NC[C@@H](F)C(C)(C)O)C1 (some centres unmarked) [Example 64],0.0052,0.44,–
CC(C)(O)[C@H](F)CNC(=O)c1cnc(Nc2ccc3ncsc3c2)cc1NC12CCC(NC(=O)c3ccncc3)(CC1)C2 [Example 399],0.0031,0.203,–
CC(C)(O)[C@H](F)CNC(=O)c1cnc(Nc2ccn3nccc3c2)cc1NC1CCOCC1F (some centres unmarked) [Example 298],0.0079,0.596,–
CC(C)(O)[C@H](F)CNC(=O)c1cnc(Nc2ccc3ncsc3c2)cc1NC1CCOCC1F (some centres unmarked) [Example 231],0.0034,–,0.088
CC(C)Nc1cc(Nc2ccn3ncc(F)c3c2)ncc1C(=O)NC[C@@H](F)C(C)(C)O [Example 288],0.001,0.134,–
O=C(NC1CCC(O)CC1)c1cnc(Nc2ccc3ncsc3c2)cc1NC1CCCC1F (centres unmarked) [Example 353],0.0029,–,0.112
CCNc1cc(Nc2ccc3ncnc(OC)c3c2)ncc1C(=O)NC[C@@H](F)C(C)(C)O [Example 125],0.0134,0.779,–
CC(C)Nc1cc(Nc2ccc3ncoc3c2)ncc1C(=O)NC[C@@H](F)C(O)C(C)C (some centres unmarked) [Example 24],0.004,0.468,–
"CC(C)(O)C(F)CNC(=O)c1cnc(Nc2ccc3ncsc3c2)cc1N[C@H]1CCCC(F)C1 (some centres unmarked) [Example 329, 6-(benzo[d]thiazol-6-ylamino)-N-(2-fluoro-3-hydroxy-3-methylbutyl)-4-(3-fluorocyclohexylamino)nicotinamide]",0.0032,0.113,–
CCC(O)(CC)[C@H](F)CNC(=O)c1cnc(Nc2cc3scnc3cn2)cc1NC1CC1 [Example 403],0.021,1.48,–
